Like-named read-outs stand apart in the source and are kept apart here. Ends that are not written are not given here.

These results are taken from paper PMC11295173 (Journal of the American Chemical Society, 2024).

Data set [1] deals with RBDs. Format: binding, SARS-CoV-2. To be noted: peptide-GO complexes; RBDs 0 to 12 μg mL-1; PBS (0.01 M, pH 7.40); excitation 520 nm.
For data set [2], the system named is RBDs from the S-proteins of the five VOCs. Description: Differential sensing of RBDs with S1-S20 (fluorescence, PCA, loading plots). The format is binding, SARS-CoV-2. To be noted: PCA and loading plots.
The nature of data set [3]: Circular dichroism (CD). The format is physicochemical. To be noted: bandwidth of 1 nm; buffer spectrum subtracted as blank. (In general: CD spectra are sensitive to the conformation of chiral molecules.)
The format of data set [4] is binding. Set-up: unit not given here. As to conditions: AuNPs (1–20 µg mL−1); peptide probe 2 × 10−6 M; PBS (0.01 M, pH 7.4), 2 min, excitation 520 nm; double reciprocal linear fitting.
Data set [5] is classed as binding. Set-up: unit not given here. As to conditions: GO (1–15 µg mL−1); peptide probe 2 × 10−6 M; PBS (0.01 M, pH 7.4), 2 min, excitation 520 nm; double reciprocal linear fitting.
Data set [6] is classed as binding. Set-up: unit not given here. To be noted: 2D MnO2 (1–12 µg mL−1); peptide probe 2 × 10−6 M; PBS (0.01 M, pH 7.4), 2 min, excitation 520 nm; double reciprocal linear fitting.
The format of data set [7] is binding. As to conditions: CNTs (1–8 µg mL−1); peptide probe 2 × 10−6 M; PBS (0.01 M, pH 7.4), 2 min, excitation 520 nm; double reciprocal linear fitting. Set-up: unit not given here.

With “TQ19: fluorescently tagged (5-TAMRA) peptide probe, presumably of QQ19 (QAKTFLDKFNHEAEDLFYQ; also: 5-TAMRA label, site not given here; UniProt Q9BYF1 24-42, looked up, fragment)”, the “sensitivity of the peptide probes for the RBDs (order, from detection limits)” value (“sensitivity … (order, from detection limits)” for short) in data set [1] is reported as “TI26 > TQ26 > TQ19 > TL7 > TI7”. In addition, the “contribution of peptide probes for VOC classification (order, loading plots)” value (shortened to “contribution of peptide probes”) in data set [2] is on record as “TI26 > TQ26 > TQ19 > TL7 > TI7”.
For “QQ19: continuous 19-mer (amino-acid residues 24–42) truncated from the α1-helix of hACE2 (QAKTFLDKFNHEAEDLFYQ; UniProt Q9BYF1 24-42, looked up, fragment)”, the “secondary structure (CD spectra)” value in data set [3] was “two minima at 202 and 222 nm, characteristic of α-helices”.
Consider “TL7: fluorescently tagged (5-TAMRA) peptide probe, presumably of LL7 (LAQMYPL; also: 5-TAMRA label, site not given here; UniProt Q9BYF1 79-85, looked up, fragment)”, for which the “binding constant (Ka)” value is given as 0.0249 in data set [4], 0.0319 in data set [5], 0.0096 in data set [6] and 0.0776 in data set [7]. Besides, in data set [1], the “sensitivity … (order, from detection limits)” value is listed as “TI26 > TQ26 > TQ19 > TL7 > TI7”. In addition, in data set [2], the “contribution of peptide probes” value is given as “TI26 > TQ26 > TQ19 > TL7 > TI7”.
Turning to “TI7: fluorescently tagged (5-TAMRA) peptide probe, presumably of GI7 (GKGDFRI; also: 5-TAMRA label, site not given here; UniProt Q9BYF1 352-358, looked up, fragment)”, the “binding constant (Ka)” value in data set [4] is recorded as 0.0153; in data set [5] it was 0.0273; in data set [6], 0.1024; in data set [7], 0.1462. Also, in data set [1], the “sensitivity … (order, from detection limits)” value is “TI26 > TQ26 > TQ19 > TL7 > TI7”. In data set [2], the “contribution of peptide probes” value is “TI26 > TQ26 > TQ19 > TL7 > TI7”.
Consider “LL7: heptamer (residues 79–85) from α2-helix of hACE2 (LAQMYPL; UniProt Q9BYF1 79-85, looked up, fragment)”, for which the “secondary structure (CD spectra)” value in data set [3] is reported as “no typical signature of secondary structures”.
Turning to “GI7: heptamer (residues 352–358) from the β3 and β4-sheet of hACE2 (GKGDFRI; UniProt Q9BYF1 352-358, looked up, fragment)”, the “secondary structure (CD spectra)” value in data set [3] was “no typical signature of secondary structures”.
